Values of other authors as cited in patent publication US20230181552A1, “EXTERNAL PREPARATION OF IMIDACLOPRID, PREPARATION METHOD AND USE THEREOF” (Qingdao Bolin Biological Technology Co., Ltd., priority 2021, published 2023).

Legend:
[1] = test system: postsynaptic nicotinic acetylcholine receptors in the central nervous system of insects; conditions: background statement
[2] = test system: nicotinic receptor sites of mammals; conditions: background statement
[3] = test system: rabbits, mice and rats; conditions: sublethal doses, systemic use

O=[N+]([O-])NC1=NCCN1Cc1ccc(Cl)nc1 [Imidacloprid, imidacloprid]
affinity for postsynaptic nicotinic acetylcholine receptors in the central nervous system of insects [1]: high affinity
affinity to nicotinic receptor sites of mammals [2]: weak affinity
pharmacological activity in mammals [3]: little pharmacological activity
